From patent publication US7338950B2, “Amide compounds as ion channel ligands and uses thereof” (Renovis, Inc., priority 2003, dated 2008) come the findings set out here.

The assay relates to VR1 receptor (293 cells expressing capsaicin-insensitive VR1 receptor variants). The assay can be described thus: High throughput screening of VR1 antagonists using a calcium imaging assay (Fura2, pH 5.1 stimulus).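 Also: Fura2 ratiometric fluorescence read every 4 s over 3 min, response taken as peak ratio minus baseline before pre-treatment, compound pre-treatment preceding acid challenge.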 Conditions: 1 uM compound; inhibition of calcium ion influx.

Molecules are shown by their SMILES.

Excerpt: A dual wavelength ratiometric dye, Fura2, was used as an indicator of relative levels of calcium ions in a 96 well format using a bench top scanning fluorometer with integrated fluidics and temperature control (Flex Station, Molecular Devices).
A dual wavelength ratiometric dye, Fura2, was used as an indicator of relative levels of [Ca2+] in a 96 well format using a bench top scanning fluorometer with integrated fluidics and temperature control (Flex Station, Molecular Devices).
293 cells were grown on PDL coated 96-well black-walled plates, in the presence of a DMEM medium containing 5% Penstrep, 5% Glutamax, 200 ug/mL Hygromycin, 5 μg/mL Blasticide and 10% heat inactivated FBS. Prior to assay, the cells were loaded with 5 μg/mL Fura2 in normal saline solution at 37° C. for 40 minutes. Cells were then washed with normal saline to remove the dye.
The assay consists of two stages; a pre-treatment phase followed by a treatment phase.
50 μl of a compound solution was added to the cells (Pre-treatment). Immediately following, 50 μl of the test compound in a saline solution at pH 5.1 was added. […] Changes in wavelength measurements were made throughout the course of the experiment in 4 second intervals over a period of 3 minutes. Responses were measured as peak fluorescence ratio after test compound addition minus baseline fluorescence ratio prior to pre-treatment and were calculated using SoftMaxPro softwareData were expressed as percentage inhibition calculated using Excel as follows:

On to `O=C(Nc1ccccc1O)c1ccc(-c2ncccc2Cl)cc1F` [Compound 1084], for which the “% Inhibition @ 1 uM” value is recorded as “+ (compound exhibited 0-25% inhibition of calcium ion influx induced by capsaicin stimulation)”.

For the molecule `CN(C)c1cccc(NC(=O)c2ccc(-c3ncccc3Cl)cc2F)c1` [Compound 1086], the “% Inhibition @ 1 uM” value was “+ (compound exhibited 0-25% inhibition of calcium ion influx induced by capsaicin stimulation)”.

Consider `O=C(Nc1cccc(Cl)c1)c1ccc(-c2ncccc2Cl)cc1F` [Compound 1088], for which the “% Inhibition @ 1 uM” value was “+ (compound exhibited 0-25% inhibition of calcium ion influx induced by capsaicin stimulation)”.

`COc1cccc(NC(=O)c2ccc(-c3ncccc3Cl)cc2F)c1` [Compound 1091]: the “% Inhibition @ 1 uM” value is given as “+ (compound exhibited 0-25% inhibition of calcium ion influx induced by capsaicin stimulation)”.

Consider `COc1ccc(NC(=O)c2ccc(-c3ncccc3Cl)cc2F)cc1Cl` [Compound 1096], for which the “% Inhibition @ 1 uM” value is on record as “++ (compound exhibited 25-50% inhibition of calcium ion influx induced by capsaicin stimulation)”.

Consider `O=C(Nc1cccc(Br)c1)c1ccc(-c2ncccc2Cl)cc1F` [Compound 1100], for which the “% Inhibition @ 1 uM” value was “++++ (compound exhibited 75% or greater inhibition of calcium ion influx induced by capsaicin stimulation)”.

On to `N#Cc1cccc(NC(=O)c2ccc(-c3ncccc3Cl)cc2F)c1` [Compound 1101], for which the “% Inhibition @ 1 uM” value is recorded as “++++ (compound exhibited 75% or greater inhibition of calcium ion influx induced by capsaicin stimulation)”.

For the molecule `CC(C)(C)c1ccc(NC(=O)c2ccc(-c3ncccc3Cl)cc2F)cc1` [Compound 1103], the “% Inhibition @ 1 uM” value is reported as “+ (compound exhibited 0-25% inhibition of calcium ion influx induced by capsaicin stimulation)”.

`Cc1cccnc1NC(=O)c1ccc(-c2ncccc2Cl)cc1F` [Compound 1112]: the “% Inhibition @ 1 uM” value was “+ (compound exhibited 0-25% inhibition of calcium ion influx induced by capsaicin stimulation)”.

In the case of `O=C(Nc1ccc(C(F)(F)F)cn1)c1ccc(-c2ncccc2Cl)cc1F` [Compound 1114], the “% Inhibition @ 1 uM” value is “+ (compound exhibited 0-25% inhibition of calcium ion influx induced by capsaicin stimulation)”.

In the case of `O=C(Nc1ncc(C(F)(F)F)cc1Cl)c1ccc(-c2ncccc2Cl)cc1F` [Compound 1115], the “% Inhibition @ 1 uM” value is reported as “+ (compound exhibited 0-25% inhibition of calcium ion influx induced by capsaicin stimulation)”.

Regarding `O=C(Nc1cccnc1Cl)c1ccc(-c2ncccc2Cl)cc1F` [Compound 1118], the “% Inhibition @ 1 uM” value is recorded as “+ (compound exhibited 0-25% inhibition of calcium ion influx induced by capsaicin stimulation)”.

`COc1ccc(NC(=O)c2ccc(-c3ncccc3Cl)cc2F)cn1` [Compound 1120]: the “% Inhibition @ 1 uM” value is “+ (compound exhibited 0-25% inhibition of calcium ion influx induced by capsaicin stimulation)”.

Take `Cc1cc(NC(=O)c2ccc(-c3ncccc3Cl)cc2F)nc(C)n1` [Compound 1123]: the “% Inhibition @ 1 uM” value is “+++ (compound exhibited 50-75% inhibition of calcium ion influx induced by capsaicin stimulation)”.

As to `O=C(Nc1ccc2ncccc2c1)c1ccc(-c2ncccc2Cl)cc1F` [Compound 1124], the “% Inhibition @ 1 uM” value was “++ (compound exhibited 25-50% inhibition of calcium ion influx induced by capsaicin stimulation)”.

As for `O=C(Nc1ccc2ccccc2c1)c1ccc(-c2ncccc2Cl)cc1F` [Compound 1126], the “% Inhibition @ 1 uM” value is “++ (compound exhibited 25-50% inhibition of calcium ion influx induced by capsaicin stimulation)”.

Consider `CC(C)(C)NC(=O)c1ccc(-c2ncccc2Cl)c(F)c1` [Compound 1127], for which the “% Inhibition @ 1 uM” value was “+ (compound exhibited 0-25% inhibition of calcium ion influx induced by capsaicin stimulation)”.

For `O=C(Nc1ccc(F)cc1)c1ccc(-c2ncccc2Cl)c(F)c1` [Compound 1131], the “% Inhibition @ 1 uM” value is “+ (compound exhibited 0-25% inhibition of calcium ion influx induced by capsaicin stimulation)”.

For `O=C(Nc1cccc(Cl)c1)c1ccc(-c2ncccc2Cl)c(F)c1` [Compound 1133], the “% Inhibition @ 1 uM” value was “+ (compound exhibited 0-25% inhibition of calcium ion influx induced by capsaicin stimulation)”.

With `CCCc1ccccc1NC(=O)c1ccc(-c2ncccc2Cl)c(F)c1` [Compound 1135], the “% Inhibition @ 1 uM” value is on record as “+ (compound exhibited 0-25% inhibition of calcium ion influx induced by capsaicin stimulation)”.

On to `COc1cccc(NC(=O)c2ccc(-c3ncccc3Cl)c(F)c2)c1` [Compound 1136], for which the “% Inhibition @ 1 uM” value was “+ (compound exhibited 0-25% inhibition of calcium ion influx induced by capsaicin stimulation)”.

For the molecule `O=C(Nc1cccc(Cl)c1Cl)c1ccc(-c2ncccc2Cl)c(F)c1` [Compound 1139], the “% Inhibition @ 1 uM” value is reported as “++++ (compound exhibited 75% or greater inhibition of calcium ion influx induced by capsaicin stimulation)”.

As for `N#Cc1cccc(NC(=O)c2ccc(-c3ncccc3Cl)c(F)c2)c1` [Compound 1141], the “% Inhibition @ 1 uM” value is on record as “++++ (compound exhibited 75% or greater inhibition of calcium ion influx induced by capsaicin stimulation)”.

As for `CC(C)(C)c1ccc(NC(=O)c2ccc(-c3ncccc3Cl)c(F)c2)cc1` [Compound 1142], the “% Inhibition @ 1 uM” value is reported as “++++ (compound exhibited 75% or greater inhibition of calcium ion influx induced by capsaicin stimulation)”.

For the molecule `CCCCc1ccc(NC(=O)c2ccc(-c3ncccc3Cl)c(F)c2)cc1` [Compound 1144], the “% Inhibition @ 1 uM” value was “++++ (compound exhibited 75% or greater inhibition of calcium ion influx induced by capsaicin stimulation)”.

Consider `Cc1ccc(NC(=O)c2ccc(-c3ncccc3Cl)c(F)c2)c(C)c1` [Compound 1145], for which the “% Inhibition @ 1 uM” value is reported as “++++ (compound exhibited 75% or greater inhibition of calcium ion influx induced by capsaicin stimulation)”.

Take `O=C(Nc1ccc(F)cc1[N+](=O)[O-])c1ccc(-c2ncccc2Cl)c(F)c1` [Compound 1149]: the “% Inhibition @ 1 uM” value was “++++ (compound exhibited 75% or greater inhibition of calcium ion influx induced by capsaicin stimulation)”.

Regarding `COc1ccc(NC(=O)c2ccc(-c3ncccc3Cl)c(F)c2)cc1Cl` [Compound 1151], the “% Inhibition @ 1 uM” value is “++++ (compound exhibited 75% or greater inhibition of calcium ion influx induced by capsaicin stimulation)”.

As for `O=C(Nc1ccc(C(F)(F)F)cc1)c1ccc(-c2ncccc2Cl)c(F)c1` [Compound 1152], the “% Inhibition @ 1 uM” value is reported as “++ (compound exhibited 25-50% inhibition of calcium ion influx induced by capsaicin stimulation)”.

Regarding `Cc1cc(C)nc(NC(=O)c2ccc(-c3ncccc3Cl)c(F)c2)c1` [Compound 1156], the “% Inhibition @ 1 uM” value was “+ (compound exhibited 0-25% inhibition of calcium ion influx induced by capsaicin stimulation)”.

Regarding `O=C(Nc1ccncc1)c1ccc(-c2ncccc2Cl)c(F)c1` [Compound 1157], the “% Inhibition @ 1 uM” value is reported as “++++ (compound exhibited 75% or greater inhibition of calcium ion influx induced by capsaicin stimulation)”.

Regarding `Cc1ccnc(NC(=O)c2ccc(-c3ncccc3Cl)c(F)c2)c1` [Compound 1162], the “% Inhibition @ 1 uM” value is listed as “++++ (compound exhibited 75% or greater inhibition of calcium ion influx induced by capsaicin stimulation)”.

Turning to `O=C(Nc1ccc(C(F)(F)F)cn1)c1ccc(-c2ncccc2Cl)c(F)c1` [Compound 1166], the “% Inhibition @ 1 uM” value was “++ (compound exhibited 25-50% inhibition of calcium ion influx induced by capsaicin stimulation)”.

`O=C(Nc1ccc(Cl)nc1)c1ccc(-c2ncccc2Cl)c(F)c1` [Compound 1169]: the “% Inhibition @ 1 uM” value is listed as “+ (compound exhibited 0-25% inhibition of calcium ion influx induced by capsaicin stimulation)”.

For the molecule `COc1ccc(NC(=O)c2ccc(-c3ncccc3Cl)c(F)c2)cn1` [Compound 1170], the “% Inhibition @ 1 uM” value is recorded as “++ (compound exhibited 25-50% inhibition of calcium ion influx induced by capsaicin stimulation)”.

Take `O=C(Nc1ccc2ncccc2c1)c1ccc(-c2ncccc2Cl)c(F)c1` [Compound 1173]: the “% Inhibition @ 1 uM” value is reported as “++++ (compound exhibited 75% or greater inhibition of calcium ion influx induced by capsaicin stimulation)”.

As to `O=C(Nc1cc[nH]n1)c1ccc(-c2ncccc2Cl)c(F)c1` [Compound 1175], the “% Inhibition @ 1 uM” value is “+ (compound exhibited 0-25% inhibition of calcium ion influx induced by capsaicin stimulation)”.

Consider `O=C(Nc1ccc2ccccc2c1)c1ccc(-c2ncccc2Cl)c(F)c1` [Compound 1177], for which the “% Inhibition @ 1 uM” value is on record as “++++ (compound exhibited 75% or greater inhibition of calcium ion influx induced by capsaicin stimulation)”.

In the case of `O=C(O)c1cccc(NC(=O)c2ccc(-c3ncccc3Cl)c(F)c2)c1` [Compound 1182], the “% Inhibition @ 1 uM” value is “+ (compound exhibited 0-25% inhibition of calcium ion influx induced by capsaicin stimulation)”.

As for `O=C(Nc1ccc(Cl)c(C(=O)O)c1)c1ccc(-c2ncccc2Cl)c(F)c1` [Compound 1183], the “% Inhibition @ 1 uM” value was “++++ (compound exhibited 75% or greater inhibition of calcium ion influx induced by capsaicin stimulation)”.

Regarding `COc1ccc(NC(=O)c2ccc(-c3ncccc3Cl)c(F)c2)cc1O` [Compound 1187], the “% Inhibition @ 1 uM” value is recorded as “++ (compound exhibited 25-50% inhibition of calcium ion influx induced by capsaicin stimulation)”.

For `O=C(Nc1ccc2cn[nH]c2c1)c1ccc(-c2ncccc2Cl)c(F)c1` [Compound 1189], the “% Inhibition @ 1 uM” value was “+++ (compound exhibited 50-75% inhibition of calcium ion influx induced by capsaicin stimulation)”.

On to `CCCOc1ccc(NC(=O)c2ccc(-c3ncccc3Cl)c(F)c2)cc1` [Compound 1190], for which the “% Inhibition @ 1 uM” value was “++ (compound exhibited 25-50% inhibition of calcium ion influx induced by capsaicin stimulation)”.

In the case of `O=C(Nc1ccc(OC(F)(F)F)cc1)c1ccc(-c2ncccc2Cl)c(F)c1` [Compound 1192], the “% Inhibition @ 1 uM” value is reported as “++ (compound exhibited 25-50% inhibition of calcium ion influx induced by capsaicin stimulation)”.

As for `O=C(Nc1cccc(OC(F)(F)F)c1)c1ccc(-c2ncccc2Cl)c(F)c1` [Compound 1193], the “% Inhibition @ 1 uM” value was “+ (compound exhibited 0-25% inhibition of calcium ion influx induced by capsaicin stimulation)”.

Regarding `CC(C)Oc1cccc(NC(=O)c2ccc(-c3ncccc3Cl)c(F)c2)c1` [Compound 1194], the “% Inhibition @ 1 uM” value is given as “+ (compound exhibited 0-25% inhibition of calcium ion influx induced by capsaicin stimulation)”.

With `O=C(Nc1ccc(F)c(F)c1)c1ccc(-c2ncccc2Cl)c(F)c1` [Compound 1195], the “% Inhibition @ 1 uM” value is listed as “+++ (compound exhibited 50-75% inhibition of calcium ion influx induced by capsaicin stimulation)”.
